# Data: patent US12319676B2, “Substituted amide compounds useful as farnesoid X receptor modulators” (BRISTOL-MYERS SQUIBB COMPANY, priority 2019, dated 2025)
# Target: T1, human FXR (Homo sapiens, UniProt Q96RI1)
# T1 construct: expressed in transfected cells; host or cells: HEK293 cells stably carrying a 5xGal4 response element-luciferase reporter, transiently transfected with pcDNA3.1-Gal4-FXR
# T1 sequence (Q96RI1 262-486 limits assumed): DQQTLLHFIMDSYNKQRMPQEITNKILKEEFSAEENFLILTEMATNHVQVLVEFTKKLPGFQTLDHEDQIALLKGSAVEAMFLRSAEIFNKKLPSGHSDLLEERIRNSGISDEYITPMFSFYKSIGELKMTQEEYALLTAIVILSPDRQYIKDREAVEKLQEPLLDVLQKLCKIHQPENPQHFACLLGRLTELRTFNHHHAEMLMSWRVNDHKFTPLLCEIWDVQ
# Test: transient human FXR/Gal4-luciferase reporter assay
# Type: cell-based
# Details: Gal4-hFXR fusion construct, luciferase reporter in HEK293 cells; overnight incubation; response as percentage of 8 μM GW-4064 control
# How it was run: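 HEK293 cells stably carrying a 5×Gal4-response-element firefly luciferase reporter were transiently transfected with a Gal4 DBD-human FXR LBD fusion, then treated overnight with compounds at 37 °C. Steady-Glo luminescence, minus DMSO background, was expressed as percent of the response to 8 μM GW-4064.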
row,SMILES,EC50
1,"CS(=O)(=O)c1cccc(N(CC23CCC(c4nc(C5CC5)no4)(CC2)CC3)C(=O)C2CCC(F)(F)CC2)c1 [Example 69, N-((4-(3-cyclopropyl-1,2,4-oxadiazol-5-yl)bicyclo[2.2.2]octan-1-yl)methyl)-4,4-difluoro-N-(3-(methylsulfonyl)phenyl)cyclohexane-1-carboxamide]",4000 nM
2,"Cn1nc(C2CC2)cc1C12CCC(CN(C(=O)C34CC(F)(C3)C4)c3cccc(S(C)(=O)=O)c3)(CC1)CC2 [Example 78, N-((4-(3-cyclopropyl-1-methyl-1H-pyrazol-5-yl)bicyclo[2.2.2]octan-1-yl)methyl)-3-fluoro-N-(3-(methylsulfonyl)phenyl)bicyclo[1.1.1]pentane-1-carboxamide]",4000 nM
3,"O=C(N(CC12CCC(c3ccc(C(F)(F)F)cn3)(CC1)CC2)c1cccc(Nc2ccc(OC(F)F)cc2)c1)C12CC(F)(C1)C2 [Example 107, N-(3-((4-(difluoromethoxy)phenyl)amino)phenyl)-3-fluoro-N-((4-(5-(trifluoromethyl)pyridin-2-yl)bicyclo[2.2.2]octan-1-yl)methyl)bicyclo[1.1.1]pentane-1-carboxamide]",484 nM
4,"CC(F)(F)c1nc(C23CCC(CN(C(=O)C4CCC(F)(F)CC4)c4cccc(Cl)c4)(CC2)CC3)no1 [Example 3, N-(3-chlorophenyl)-N-((4-(5-(1,1-difluoroethyl)-1,2,4-oxadiazol-3-yl)bicyclo[2.2.2]octan-1-yl)methyl)-4,4-difluorocyclohexane-1-carboxamide]",133 nM
5,"CCc1ccc(Nc2cccc(N(CC34CCC(c5noc(C(C)(C)C)n5)(CC3)CC4)C(=O)C34CC(F)(C3)C4)c2)cc1 [Example 86, N-((4-(5-(tert-butyl)-1,2,4-oxadiazol-3-yl)bicyclo[2.2.2]octan-1-yl)methyl)-N-(3-((4-ethylphenyl)amino)phenyl)-3-fluorobicyclo[1.1.]pentane-1-carboxamide]",519 nM
6,"N#Cc1cc(F)cc(N(CC23CCC(c4nc(C5CC5)no4)(CC2)CC3)C(=O)C23CC(F)(C2)C3)c1 [Example 62, N-(3-cyano-5-fluorophenyl)-N-((4-(3-cyclopropyl-1,2,4-oxadiazol-5-yl)bicyclo[2.2.2]octan-1-yl)methyl)-3-fluorobicyclo[1.1.1]pentane-1-carboxamide]",185 nM
7,"Cc1noc(C23CCC(CN(C(=O)C4CCCCC4)c4cccc(C(=O)Nc5nccs5)c4)(CC2)CC3)n1 [Example 82, 3-(N-((4-(3-methyl-1,2,4-oxadiazol-5-yl)bicyclo[2.2.2]octan-1-yl)methyl)cyclohexanecarboxamido)-N-(thiazol-2-yl)benzamide]",3010 nM
8,"CC(C)(C)c1nc(C23CCC(CN(C(=O)C45CC(F)(C4)C5)c4cccc(Nc5ncc(OC(F)F)cn5)c4)(CC2)CC3)no1 [Example 102, N-((4-(5-(tert-butyl)-1,2,4-oxadiazol-3-yl)bicyclo[2.2.2]octan-1-yl)methyl)-N-(3-((5-(difluoromethoxy)pyrimidin-2-yl)amino)phenyl)-3-fluorobicyclo[1.1.1]pentane-1-carboxamide]",183 nM
9,"CC(C)(C#N)Oc1ccc(Nc2cccc(N(CC34CCC(c5ccc(C(C)(F)F)cn5)(CC3)CC4)C(=O)[C@H]3C[C@](O)(C(F)(F)F)C3)c2)cc1 [Example 92, (1S,3S)—N-(3-((4-((2-cyanopropan-2-yl)oxy)phenyl)amino)phenyl)-N-((4-(5-(1,1-difluoroethyl)pyridin-2-yl)bicyclo[2.2.2]octan-1-yl)methyl)-3-hydroxy-3-(trifluoromethyl)cyclobutane-1-carboxamide]",2030 nM
10,"CC(F)(F)c1nc(C23CCC(CN(C(=O)C45CC(F)(C4)C5)c4cccc(S(=O)(=O)NC5CC5)c4)(CC2)CC3)no1 [Example 18, N-(3-(N-cyclopropylsulfamoyl)phenyl)-N-((4-(5-(1,1-difluoroethyl)-1,2,4-oxadiazol-3-yl)bicyclo[2.2.2]octan-1-yl)methyl)-3-fluorobicyclo[1.1.1]pentane-1-carboxamide]",1560 nM
11,"NC(=O)c1nc(C23CCC(CN(c4cccc(Br)c4)C(=O)[C@H]4C[C@](O)(C(F)(F)F)C4)(CC2)CC3)no1 [Example 139, 3-(4-(((1S,3S)—N-(3-bromophenyl)-3-hydroxy-3-(trifluoromethyl)cyclobutane-1-carboxamido)methyl)bicyclo[2.2.2]octan-1-yl)-1,2,4-oxadiazole-5-carboxamide]",1450 nM
12,"CC(C)Oc1cccc(N(CC23CCC(c4noc(C(C)(F)F)n4)(CC2)CC3)C(=O)[C@H]2C[C@@](C)(O)C2)c1 [Example 125, (1S,3S)—N-((4-(5-(1,1-difluoroethyl)-1,2,4-oxadiazol-3-yl)bicyclo[2.2.2]octan-1-yl)methyl)-3-hydroxy-N-(3-isopropoxyphenyl)-3-methylcyclobutane-1-carboxamide]",1520 nM
13,"CC(C)(C)c1noc(C23CCC(CN(c4cccc(C#N)c4)C(=O)[C@H]4C[C@@](C)(O)C4)(CC2)CC3)n1 [Example 40, (1S,3S)-N-((4-(3-(tert-butyl)-1,2,4-oxadiazol-5-yl)bicyclo[2.2.2]octan-1-yl)methyl)-N-(3-cyanophenyl)-3-hydroxy-3-methylcyclobutane-1-carboxamide]",1260 nM
14,"O=C(N(CC12CCC(c3noc(C(F)(F)F)n3)(CC1)CC2)c1cccc(Br)c1)C12CC(F)(C1)C2 [Example 35, N-(3-bromophenyl)-3-fluoro-N-((4-(5-(trifluoromethyl)-1,2,4-oxadiazol-3-yl)bicyclo[2.2.2]octan-1-yl)methyl)bicyclo[1.1.1]pentane-1-carboxamide]",42 nM
15,"CC(C)(C)c1nc(C23CCC(CN(C(=O)C45CC(F)(C4)C5)c4cccc(Nc5ccc(F)cc5)c4)(CC2)CC3)no1 [Example 88, N-((4-(5-(tert-butyl)-1,2,4-oxadiazol-3-yl)bicyclo[2.2.2]octan-1-yi)methyl)-3-fluoro-N-(3-((4-fluorophenyl)amino)phenyl)bicyclo[1.1.1]pentane-1-carboxamide]",179 nM
16,"COc1cccc(N(CC23CCC(c4nc(C5CC5)no4)(CC2)CC3)C(=O)C2CC(F)(F)C2)c1 [Example 59, N-((4-(3-cyclopropyl-1,2,4-oxadiazol-5-yl)bicyclo[2.2.2]octan-1-yl)methyl)-3,3-difluoro-N-(3-methoxyphenyl)cyclobutane-1-carboxamide]",673 nM
